Assays:
[1] = test system: mouse brain; assay: In vivo T7 phage display (biopanning), high throughput sequencing of brain phage; settings: for reads associated with each sequence (Ion torrent sequencing): Round 5 of biopanning
Method: The in vivo phage screening in male Balb/C mice was performed as described in (Põšnograjeva et al., 2022) with some alterations. To reduce the background of unspecific phages in the brain, 4.5×10^10 pfu of UV-inactivated control insertless T7 phage was injected i.p. 30 min later, CX7C naïve T7 phage library or the phage pool recovered from the brain in the previous round of biopanning was injected i.v. and allowed to circulate for 30 min. The mice were anesthetized and perfused with PBS intracardially. The brain was removed, homogenized in LB-NP40 (1%) and the phages in the lysate were rescued by amplification in semi-solid media in E. coli strain BLT5403. Peptide-encoding portion of the phage genome was sequenced using Ion Torrent high throughput sequencing (HTS). 8 mice were used in the first round of biopanning (R1) to prevent creating a narrow bottleneck of selection in the first round of biopanning. 2 mice were used for all subsequent rounds (R2 . . . . R5). R5 was repeated with the additional step of isolating brain CD31+ cells from CD31− cells by magnetic-activated cell sorting. The mouse brains were dissociated using Dounce tissue grinder and Adult Brain Dissociation Kit (#130-107-677) and CD31+ cells were isolated from all the other brain cells using CD31 MicroBeads (#130-097-418) following the manufacturer's protocol for isolation and cultivation of endothelial cells from adult mouse brain. The cells were lysed in LB-NP40 (1%) and the samples were further processed following the same steps with samples of whole brain.
To identify peptides that accumulate in mouse brain, cross the blood-brain barrier and reach the brain parenchyma cells, in vivo T7 phage display was used. For round 1 of biopanning, naïve CX7C T7 peptide-phage library was injected into mice i.v. The phages accumulated in brain were rescued to be used as input in a subsequent round of biopanning. A consistent increase in the % of injected phage accumulating in the brain tissue through rounds 1 . . . 5 of biopanning was observed (FIG. 1A; To assess the % of injected phage that accumulated in the brain throughout the five rounds of biopanning (R1-R5), Peptide-phages were injected i.v. and following 30 min circulation mice were perfused with PBS. The phages rescued from the brain were reamplified and injected for a subsequent round of biopanning). The 5th round of bio-panning was then repeated with an additional step of isolating CD31+ brain endothelial cells from CD31− brain cells to detect peptides that not only accumulate in the brain, but also penetrate the endothelial cell layer lining the brain blood vessels (FIG. 1B; The total amount of phage rescued from mouse brain CD31+ and CD31− cell fractions after R5 with the additional step of isolating brain endothelial (CD31+) cells from all the other brain cells (parenchyma cells; CD31−)).
A complete listing of peptides that were identified from Ion Torrent high throughput sequencing from bio-panning Round 5 is set forth in Table 1B.

[2] = test system: mouse brain; assay: In vivo phage display with CX4CYX library; settings: for R1 reads: round 1; for R3 reads: round 3; for R3 > R1 (ratio of sequencing reads between round 3 and round 1): round 3 / round 1
Method: In vivo phage display with CX4CYX library was performed in three selection rounds. Phage library was injected intravenously to Balb/c mice and allowed to circulate for one hour. After circulation, the animals were anesthetized and perfused intracardially with acid and detergent buffers. Brain and control organs were collected and homogenized in 1% NP40-LB. Bound phages were rescued by amplification in E. coli and their genomic DNA was sequenced by Ion Torrent next generation DNA sequencing system.
A novel phage library CX4CYX was constructed based on the alanine-leucine screen to find new brain homing peptides). This knowledge directed us to construct a novel phage library CX4CYX (X—any amino acid), where Cys1, Cys6 and Tyr7 remained in their intact positions, and the four amino acid variable-domain laid between the cysteines, and one amino acid variability after Tyr7. Three rounds of phage bio-panning was performed to allow enrichment of peptides in the brain. Again acid and detergent buffers were used for perfusion to remove non-specifically bound phages from the brain after systemic administration of phage library (round 1) and recovered brain phage pools (round 2 and 3). HTS reads from round 1 to round 3 indicated decent enrichment of in-frame peptides in the brain (Table 6).

[3] = mouse 325, total reads in sample 135061
[4] = mouse 326, total reads in sample 218048

Substance | reads associated with each sequence (Ion torrent sequencing) [1, 3] | reads associated with each sequence (Ion torrent sequencing) [1, 4] | R1 reads [2] | R3 reads [2] | R3 > R1 (ratio of sequencing reads between round 3 and round 1) [2] | representation of peptide sequence in brain ([1]; whole brain after round 5, CD31+ and CD31- brain cell fractions)
MLGDPILASRRVISRAK | 67 reads | 100 reads |  |  |  | 
MLGDPILASRRVISRAKLAAALD | 34 reads | 119 reads |  |  |  | 
MLGDPILASRRVISRAKLEAALE | 129 reads | 251 reads |  |  |  | 
MLGDPILASRRVISRAKLA | 150 reads | 172 reads |  |  |  | 
CVGTLCY |  |  | 21 reads | 11631 reads | 554 | 
MLGDPNLARRRVISRAKLAAALE | 4716 reads | 8755 reads |  |  |  | 
MIGDANSSS | 2370 reads | 2197 reads |  |  |  | 
MLGDPILASRAVISRAKLAAA | 350 reads | 399 reads |  |  |  | 
MIGDPILASRRVISR | 77 reads | 76 reads |  |  |  | 
CQGALCY |  |  | 27 reads | 8612 reads | 319 | 
MLGDPILASRRVISRAKLADALE | 142 reads | 359 reads |  |  |  | 
CQGSNCY |  |  | 4 reads | 1202 reads | 301 | 
MLGDPILASRAVISRAKLAAHSS | 84 reads | 142 reads |  |  |  | 
MLGDPNIVAKLAAALE | 271 reads | 368 reads |  |  |  | 
MIGDPILASRRVISRAKLAA | 254 reads | 286 reads |  |  |  | 
CMGDLCY |  |  | 3 reads | 837 reads | 279 | 
MLGDPNSSSVDKLAAALE | 674 reads | 588 reads |  |  |  | 
CVGQLCY |  |  | 12 reads | 5355 reads | 446 | 
CACPLCY [CAGPLCY] |  |  | 3 reads | 1232 reads | 411 | 
MLGDPNLARRRVISRAKLAAAL | 89 reads | 188 reads |  |  |  | 
MLGDPILASRRVISRAKLAAALG | 33 reads | 108 reads |  |  |  | 

Substance | reads associated with each sequence (Ion torrent sequencing) [1, 3] | reads associated with each sequence (Ion torrent sequencing) [1, 4] | R1 reads [2] | R3 reads [2] | R3 > R1 (ratio of sequencing reads between round 3 and round 1) [2] | representation of peptide sequence in brain ([1]; whole brain after round 5, CD31+ and CD31- brain cell fractions)
MLGDPNSC | 84 reads | 216 reads |  |  |  | 
CAGSMCY |  |  | 14 reads | 9077 reads | 648 | 
MLGDPILASRRVISRAKLAAAL | 1495 reads | 2334 reads |  |  |  | 
MIGDPILAGRRIVSRAKLAAALE | 315 reads | 480 reads |  |  |  | 
CVCANCY [CVGANCY] |  |  | 24 reads | 7359 reads | 307 | 
CEGSLCY |  |  | 3 reads | 2833 reads | 944 | 
MLGDPNS | 57 reads | 84 reads |  |  |  | 
MLGDPILASRRVISRAKLAATLE | 39 reads | 143 reads |  |  |  | 
CEGALCY |  |  | 17 reads | 39863 reads | 2345 | 
CTGSLCY |  |  | 64 reads | 43464 reads | 679 | 
MIGDPNFAIRAVISRAKLAAALE | 543 reads | 825 reads |  |  |  | 
CKGSNCY |  |  | 4 reads | 2037 reads | 509 | 
CTGSMCY |  |  | 3 reads | 841 reads | 280 | 
MLGDPILASERVISRAKLAAASS | 47 reads | 169 reads |  |  |  | 
MLGDPILASRRVISRAKLAAAFE | 46 reads | 269 reads |  |  |  | 
MLGDPNSCTEGTRVTC | 1533 reads | 2339 reads |  |  |  | 
MLGDPILASRRVISRAKLAAVLE | 51 reads | 292 reads |  |  |  | 
MLGDPILASRRVISRAKLAAALE [Pep1] | 80229 reads | 132268 reads |  |  |  | most represented peptide sequence in the whole brain after round 5 of bio-panning as well as in CD31+ and CD31− brain cell fractions
IMLGDPILASRRVISRAKL | 68 reads | 116 reads |  |  |  | 
MLGDPILASRAVISRAKLAAALS | 54 reads | 194 reads |  |  |  | 
